Assay [1] addresses PASK (UniProt # Q96RG2; human recombinant N-terminal GST tagged construct, residues 879-1323) (Homo sapiens (Human), UniProt Q96RG2). In words: PASK ATP Radiochemical Assay. Format: biochemical. The note with it: 33P-ATP radiochemical, Myelin Basic Protein substrate; read-out: IC50 Kinase Domain. The protocol: PASK ATP Radiochemical Assay
Test compounds in DMSO are then added and the mixture, followed by delivery of ^33P-ATP (specific activity 0.01 μCi/μl final) to initiate the reaction. […] The entire reaction mixture is washed through onto a P81 Phosphocellulose paper and washed three times for 10 minutes in 75 mM phosphoric acid and once in methanol prior to drying and scintillation counting.

Assay [2] concerns the target PASK (Homo sapiens (Human), UniProt Q96RG2). In words: PAS Kinase FRET Assay. Format: biochemical. The following applies: TR-FRET, Ulight-peptide substrate; read-out: IC50 Kinase Domain. An excerpt: PAS Kinase FRET Assay The aim of the FRET assay is to determine the inhibition potential of test compounds on targeted kinase. This assay platform provides a homogenous screening method for measuring kinase activity by quantitating the amount of phospho-substrate in solution following a kinase reaction. In the presence of kinase and ATP, the Ulight-peptide is phosphorylated and captured by an anti-phospho-substrate antibody, which brings the Eu chelate donor and Ulight acceptor dyes into close proximity. […] The contents of the plate were and incubated at RT for 1 h. The reaction was stopped by adding 5 μl of stop solution to each test well followed by mixing and incubation at RT for 10 minutes. 5 μl of detection mix (detection antibody diluted in detection buffer) was added; the contents of the plate were mixed and then incubated in the dark for 1 hour at RT. […] The results were graphed to calculate the EC50. Titration of ATP at the EC50 concentration of kinase to determine ATP Km,app. was performed using the following method. […] The contents of the plate were and incubated at RT for 1 h. The reaction was stopped by adding 5 μl of stop solution to each test well followed by mixing and incubation at RT for 10 minutes. 5 μl of detection mix (detection antibody diluted in detection buffer) was added; the contents of the plate were mixed and then incubated in the dark for 1 hour at RT. […] The results were graphed to calculate the EC50 as the ATP Km,app. […] If compound is not soluble under this condition, it was diluted to 3 mM. Kinase reaction buffer was prepared containing 10 mM MgCl2, 50 mM HEPES, 1 mM EGTA, 0.01% TWEEN-20, 2 mM DTT. […] As a positive control, 2.5 μl of positive compound was added to assay wells, and 2.5 μl of DMSO to assay wells as vehicle control. Kinase solution was prepared in reaction buffer at 2× final assay concentration. Kinase solution (5 μl) was added to each well of the assay plate. The substrate and ATP solution was prepared in kinase reaction buffer at 4× final assay concentration. The kinase reaction was started by adding 2.5 μl of substrate+ATP mix solution to each well of the assay plate. The plate is mixed on a plate shaker; then covered and allowed to react for 2 hours in the dark at 25° C. without shaking. The reaction was stopped by adding 5 μl of stop solution to each test well followed by mixing and incubation at RT for 10 minutes in the dark. 5 μl of detection mix (detection antibody diluted in detection buffer) was added; the contents of the plate were mixed and then incubated in the dark for 1 hour at RT.
Background: In TR-FRET formats the signal depends on donor and acceptor labels being close together.

Where only a bound is given, the exact number is not on record here.

Chain of PASK (UniProt # Q96RG2; human recombinant N-terminal GST tagged construct, residues 879-1323) (Homo sapiens (Human), UniProt Q96RG2) (Q96RG2 879-1323, stated change not applied): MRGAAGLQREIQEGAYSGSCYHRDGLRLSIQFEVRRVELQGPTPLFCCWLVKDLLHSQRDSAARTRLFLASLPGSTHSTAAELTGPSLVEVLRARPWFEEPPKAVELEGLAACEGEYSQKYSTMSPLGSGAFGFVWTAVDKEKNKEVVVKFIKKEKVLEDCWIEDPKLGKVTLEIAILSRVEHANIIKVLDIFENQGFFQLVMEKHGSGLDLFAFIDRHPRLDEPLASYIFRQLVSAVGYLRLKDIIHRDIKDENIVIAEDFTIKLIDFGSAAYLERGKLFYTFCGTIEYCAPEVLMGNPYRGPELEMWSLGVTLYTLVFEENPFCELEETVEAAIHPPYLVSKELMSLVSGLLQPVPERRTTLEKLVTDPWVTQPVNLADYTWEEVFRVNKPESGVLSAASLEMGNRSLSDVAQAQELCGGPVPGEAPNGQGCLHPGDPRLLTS
Chain of PASK (Homo sapiens (Human), UniProt Q96RG2) (Q96RG2 999-1251): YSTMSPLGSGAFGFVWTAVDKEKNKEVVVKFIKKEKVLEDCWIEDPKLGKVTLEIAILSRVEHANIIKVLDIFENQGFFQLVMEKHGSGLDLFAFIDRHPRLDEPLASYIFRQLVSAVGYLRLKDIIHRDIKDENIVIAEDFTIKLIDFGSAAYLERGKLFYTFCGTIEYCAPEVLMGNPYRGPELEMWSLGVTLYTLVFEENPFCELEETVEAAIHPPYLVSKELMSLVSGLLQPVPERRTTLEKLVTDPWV

Broadly, the IC50 is the concentration at which inhibition is half-maximal. Turning to `O=C(O)c1ccc2nc(-c3ccccc3)c(N3CCN(c4ccc(C(F)(F)F)cc4)CC3)nc2c1` [Example 1, 2-Phenyl-3-(4-(4-(trifluoromethyl)phenyl)piperazin-1-yl)quinoxaline-6-carboxylic acid], on PASK [1], the IC50 was < 10 µM.
Same read-out and setting: the result for `O=C(O)c1ccc2nc(-c3ccccc3)c(N3CCN(c4ccccn4)CC3)nc2c1` [Example 2, 2-Phenyl-3-(4-(pyridin-2-yl)piperazin-1-yl)quinoxaline-6-carboxylic acid] reads < 10 µM.
On to `O=C(O)c1ccc2nc(-c3ccccc3)c(N3CCN(c4cccc(Cl)c4)CC3)nc2c1` [Example 3, 3-(4-(3-Chlorophenyl)piperazin-1-yl)-2-phenylquinoxaline-6-carboxylic acid], for which the IC50 at PASK [1] was < 10 µM.
On the same count and under the same terms, the result for `CN1CCN(c2nc3cc(C(=O)O)ccc3nc2-c2ccccc2)CC1` [Example 4, 3-(4-Methylpiperazin-1-yl)-2-phenylquinoxaline-6-carboxylic acid] reads > 10 µM; that for `O=C(O)c1ccc2nc(-c3ccccc3)c(N3CCN(c4ccccc4)CC3)nc2c1` [Example 6, 2-Phenyl-3-(4-phenylpiperazin-1-yl)quinoxaline-6-carboxylic acid], < 10 µM.
Same read-out and setting: under `O=C(O)c1ccc2nc(-c3ccccc3)c(N3CCC(c4ccc(C(F)(F)F)cc4)CC3)nc2c1` [Example 7, 2-Phenyl-3-(4-(4-(trifluoromethyl)phenyl)piperidin-1-yl)quinoxaline-6-carboxylic acid] stands < 10 µM; under `O=C(O)c1ccc2nc(-c3ccccc3)c(N3CCN(c4ccc(Cl)cc4)CC3)nc2c1` [Example 8, 3-(4-(4-Chlorophenyl)piperazin-1-yl)-2-phenylquinoxaline-6-carboxylic acid], < 10 µM.
With `O=C(O)c1ccc2nc(-c3ccc(F)cc3)c(N3CCS(=O)(=O)CC3)nc2c1` [Example 101, 3-(1,1-Dioxidothiomorpholino)-2-(4-fluorophenyl)quinoxaline-6-carboxylic acid], at PASK [2], the IC50 is ≥ 10 µM.
Same read-out and setting: under `O=C(O)c1ccc2nc(-c3ccccc3)c(N3CCS(=O)(=O)CC3)nc2c1` [Example 102, 3-(1,1-Dioxidothiomorpholino)-2-phenylquinoxaline-6-carboxylic acid] stands ≥ 10 µM.
Same read-out and setting: the result for `O=C1CN(c2nc3cc(C(=O)O)ccc3nc2-c2ccc(F)cc2)CCN1` [Example 103, 2-(4-Fluorophenyl)-3-(3-oxopiperazin-1-yl)quinoxaline-6-carboxylic acid] reads ≤ 10 µM; that for `CN(c1nc2cc(C(=O)O)ccc2nc1-c1ccc(F)cc1)C1CCOCC1` [Example 105, 2-(4-Fluorophenyl)-3-(methyl(tetrahydro-2H-pyran-4-yl)amino)quinoxaline-6-carboxylic acid], ≤ 10 µM; that for `CN(c1nc2cc(C(=O)O)ccc2nc1-c1ccc(F)cc1)C1CCCC1` [Example 106, 3-(Cyclopentyl(methyl)amino)-2-(4-fluorophenyl)quinoxaline-6-carboxylic acid], ≤ 10 µM.
Same read-out and setting: the result for `Cc1ccc(-c2nc3ccc(C(=O)O)cc3nc2N(C)C(C)C)s1` [Example 107, 3-(Isopropyl(methyl)amino)-2-(5-methylthiophen-2-yl)quinoxaline-6-carboxylic acid] reads ≤ 10 µM.
Consider `CC(C)N(C)c1nc2cc(C(=O)O)ccc2nc1-c1cccs1` [Example 108, 3-(Isopropyl(methyl)amino)-2-(thiophen-2-yl)quinoxaline-6-carboxylic acid], for which the half-inhibitory concentration (IC50) on PASK [2] is ≤ 10 µM.
Consider `CC(=O)N(C)C1CCN(c2nc3cc(C(=O)O)ccc3nc2-c2ccc(F)cc2)CC1` [Example 111, 2-(4-Fluorophenyl)-3-(4-(N-methylacetamido)piperidin-1-yl)quinoxaline-6-carboxylic acid], for which the IC50 at PASK [2] is ≤ 10 µM.
In the case of `CN1CCN(c2nc3cc(C(=O)O)ccc3nc2-c2ccc(F)cc2)CC1=O` [Example 112, 2-(4-Fluorophenyl)-3-(4-methyl-3-oxopiperazin-1-yl)quinoxaline-6-carboxylic acid], at PASK [2], the concentration for half-maximal inhibition (IC50) is ≤ 10 µM.

Values taken from patent publication US10781185B2, “Heterocyclic compounds for the inhibition of PASK” (BioEnergenix LLC, priority 2009, dated 2020).
